Measurements from patent publication US12653191B2, “Active compound combinations” (Bayer Aktiengesellschaft, priority 2020, dated 2026).
Read-outs that look alike come from different tables or passages of the source.

Columns and labels:
Botrytis cinerea = assay: in vitro-Test with fungal microorganisms, Method A (tables B1-B14); format: cell-based; settings: Botrytis cinerea
In short: (§1)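 Test compound in methanol plus alkylaryl-polyglycol-ether emulsifier was dried into wells, then liquid potato dextrose medium containing spores or mycelium of the fungus was added. Plates were incubated at 20° C and 85% relative humidity; growth read at 620 nm after 3-5 days, efficacy relative to untreated control.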

Parastagonospora nodorum = assay: in vitro-Test with fungal microorganisms, Method B (tables H5-H8); format: cell-based; settings: Parastagonospora nodorum, read-out: Efficacy
In short: (§2)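 Efficacy, relative to untreated control (0% = growth as in control, 100% = no growth), from photometric growth measurement at 600 nm after 3 to 7 days at 20° C., 85% relative humidity. Compound applied in methanol+emulsifier, solvent evaporated, then spore/mycelium-amended liquid medium added.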

Diaporthe citri [1] = assay: in vitro-Test with fungal microorganisms, Method A (tables F1-F11); format: cell-based; settings: Diaporthe citri, read-out: Efficacy
In short: as §1

Fusarium culmorum [2] = assay: in vitro-Test with fungal microorganisms, Method B (tables G5-G15); format: cell-based; settings: Fusarium culmorum, single active compound, 0.08 ppm; read-out: Efficacy
In short: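 Steps: solvent evaporation leaves the compound coating the wells; fungus-inoculated liquid growth medium goes on top; absorbance at 600 nm is measured; incubation runs 3 to 7 days at 20° C. with 85% relative humidity. Inhibition is then read photometrically and expressed as efficacy against untreated control.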

Diaporthe citri [3] = assay: in vitro-Test with fungal microorganisms, Method B (tables F12-F15); format: cell-based
Protocol: Example: In Vitro-Test with Fungal Microorganisms
Wells of 96-well microtiter plates are filled with 30 μl of a preparation of test compound or compound combination in methanol+emulsifier alkylaryl-polyglycol-ether. Thereafter, the solvent is evaporated in a hood. At the next step, 200 μl of liquid growth medium is given, that has been amended with an appropriate concentration of spores or mycelium suspension of the test fungus.
With the aid of a photometer, the extinction in all wells is measured at the wavelength of 600 nm.
The microtiter plates are incubated for 3 to 7 days at 20° C. and 85% relative humidity. After the incubation inhibition of growth is determined photometrically. Efficacy is calculated in relation to the untreated control, 0% efficacy means fungal growth as high as in untreated control while 100% efficacy means no fungal growth is measured.
The data in tables A1 to A12, B1 to B14, C1 to C10, D1 to D8, E1 to E8, F1 to F11, G1 to G4, H1 to H4 and I1 to I5 were collected according to Method A. The data in tables A13 to A22, B15 to B18, C11 to C20, E9 to E16, F12 to F15, G5 to G15, H5 to H8, I6 to I11 and J1 to J11 were collected according to Method B.

Cercospora beticola [4] = assay: in vitro-Test with fungal microorganisms, Method B (tables C11-C20); format: cell-based; settings: Cercospora beticola, read-out: Efficacy %
In short: as §2

Cordana musae [5] = assay: in vitro-Test with fungal microorganisms, Method A (tables E1-E8); format: cell-based; settings: Neocordana musae, read-out: Efficacy %
In short: as §1

Fusarium culmorum [6] = assay: in vitro-Test with fungal microorganisms, Method A (tables G1-G4); format: cell-based
In short: as §1

Cercospora beticola [7] = assay: in vitro-Test with fungal microorganisms, Method A (tables C1-C10); format: cell-based; settings: Cercospora beticola, read-out: Efficacy %
In short: as §1

[8] = tested on: Colletotrichum lindemuthianum; assay: in vitro-Test with fungal microorganisms, Method A (tables D1-D8); format: cell-based
In short: as §1

Alternaria alternata = assay: in vitro-Test with fungal microorganisms, Method B (tables A13-A22); format: cell-based; settings: Alternaria alternata, read-out: Efficacy
In short: as §2

[9] = tested on: Ustilago segetum var. avenae; assay: in vitro-Test with fungal microorganisms, Method B (tables I6-I11); format: cell-based; settings: read-out: Efficacy %
In short: as §2

Colletotrichum coccodes = assay: in vitro-Test with fungal microorganisms, Method B (tables J1-J11); format: cell-based; settings: Colletotrichum coccodes, read-out: Efficacy %
In short: as §2

[10] = tested on: Ustilago segetum var. avenae; assay: in vitro-Test with fungal microorganisms, Method A (tables I1-I5); format: cell-based; settings: alone, read-out: Efficacy %
In short: as §1

Cordana musae [11] = assay: in vitro-Test with fungal microorganisms, Method B (tables E9-E16); format: cell-based; settings: for Efficacy %: single substance
In short: as §2

Alternaria alternate = assay: in vitro-Test with fungal microorganisms, Method A (tables A1-A12); format: cell-based, Alternaria alternata; settings: Alternaria, applied alone, read-out: Efficacy %
In short: as §1

With `N#Cc1sc2c(=O)c3ccccc3c(=O)c=2sc1C#N` [(5.010) dithianon, dithianon] the inhibition of growth at 0.8 ppm (Botrytis cinerea; read-out: Efficacy) was 0%, the inhibition of growth at 4 ppm (Botrytis cinerea; 4.0 ppm, read-out: Efficacy) was 23% and the inhibition of growth at 20 ppm (Botrytis cinerea; read-out: Efficacy) was 100%. The inhibition of growth at 0.8 ppm (Botrytis cinerea; alone, read-out: Efficacy %) was 0%, the inhibition of growth at 20 ppm (Botrytis cinerea; alone, read-out: Efficacy %) was 99% and the inhibition of growth at 0.08 ppm (Parastagonospora nodorum; 0.08 ppm) was 12%. The inhibition of growth at 0.4 ppm (Parastagonospora nodorum; 0.4 ppm) was 5%, the inhibition of growth at 2 ppm (Parastagonospora nodorum; 2 ppm) was 96% and the inhibition of growth at 0.8 ppm (Diaporthe citri [1]; Table F10, 0.8 ppm alone) was 9%. The inhibition of growth at 4 ppm (Diaporthe citri [1]; Table F10, 4.0 ppm alone) was 99%, the inhibition of growth at 20 ppm (Diaporthe citri [1]; Table F10, 20.0 ppm alone) was 98% and the inhibition of growth at 0.8 ppm (Diaporthe citri [1]; applied alone, 0.8 ppm) was 17%. The inhibition of growth at 20 ppm (Diaporthe citri [1]; applied alone, 20.0 ppm) was 98%, the inhibition of growth at 0.08 ppm (Fusarium culmorum [2]) was 4% and the Efficacy (Diaporthe citri [3]; Table F13, 0.4 ppm alone) was 13%. The inhibition of growth at 0.08 ppm (Cercospora beticola [4]; 0.08 ppm) was 0%, the inhibition of growth at 0.4 ppm (Cercospora beticola [4]; 0.4 ppm) was 3% and the inhibition of growth at 2 ppm (Cercospora beticola [4]; 2 ppm) was 100%. The inhibition of growth at 0.8 ppm (Cordana musae [5]; single substance, 0.8 ppm) was 0%, the inhibition of growth at 4 ppm (Cordana musae [5]; single substance, 4.0 ppm) was 100% and the Efficacy (Fusarium culmorum [6]; 20.0 ppm, alone) was 100%. It also gave an inhibition of growth at 4 ppm (Fusarium culmorum [6]; Fusarium culmorum, 4.0 ppm, alone, read-out: Efficacy) of 0%, an inhibition of growth at 0.8 ppm (Cercospora beticola [7]; 0.8 ppm) of 0% and an inhibition of growth at 4 ppm (Cercospora beticola [7]; 4.0 ppm alone) of 100%. It also gave an inhibition of growth at 4 ppm (Cercospora beticola [7]; 4.0 ppm) of 100%, an inhibition of growth at 20 ppm (Cercospora beticola [7]; 20.0 ppm alone) of 99% and an inhibition of growth at 20 ppm (Cercospora beticola [7]; 20.0 ppm) of 99%. The inhibition of growth at 0.8 ppm ([8]; Colletotrichum lindemuthianum, single active at 0.8 ppm, read-out: Efficacy %) was 0%, the inhibition of growth at 4 ppm ([8]; Colletotrichum lindemuthianum, single active at 4.0 ppm, read-out: Efficacy %) was 100% and the inhibition of growth at 20 ppm ([8]; Colletotrichum lindemuthianum, single active at 20.0 ppm, read-out: Efficacy %) was 100%. For the same compound, the Efficacy % ([8]; single active at 0.8 ppm) was 0%, the inhibition of growth at 0.4 ppm (Alternaria alternata; single compound, 0.4 ppm) was 0% and the inhibition of growth at 2 ppm (Alternaria alternata; single compound, 2 ppm) was 32%. For the same compound, the inhibition of growth at 0.08 ppm ([9]; 0.08 ppm) was 2%, the inhibition of growth at 0.4 ppm ([9]; 0.4 ppm) was 0% and the inhibition of growth at 2 ppm ([9]; 2 ppm) was 29%. It also gave an inhibition of growth at 0.08 ppm (Colletotrichum coccodes; single active compound at 0.08 ppm) of 0%, an inhibition of growth at 0.4 ppm (Colletotrichum coccodes; single active compound at 0.4 ppm) of 11% and an inhibition of growth at 10 ppm (Colletotrichum coccodes; single active compound at 10 ppm) of 100%. It also gave an inhibition of growth at 0.8 ppm ([10]; 0.8 ppm) of 12%, an inhibition of growth at 4 ppm ([10]; 4.0 ppm) of 100% and an inhibition of growth at 20 ppm ([10]; 20.0 ppm) of 99%. It also gave an inhibition of growth at 2 ppm (Cordana musae [11]; Neocordana musae, single active, 2 ppm, read-out: Efficacy) of 95%, an Efficacy % (Cordana musae [11]; 0.08 ppm) of 0% and an Efficacy % (Cordana musae [11]; 10 ppm) of 100%.
For `CON=C(C(=O)OC)c1ccccc1CON=C(C)c1cccc(C(F)(F)F)c1` [(3.020) trifloxystrobin, trifloxystrobin], the inhibition of growth at 0.008 ppm (Botrytis cinerea; alone, 0.008 ppm, read-out: Efficacy %) was 19%, the inhibition of growth at 0.04 ppm (Botrytis cinerea; alone, 0.04 ppm, read-out: Efficacy %) was 0% and the inhibition of growth at 0.2 ppm (Botrytis cinerea; alone, 0.2 ppm, read-out: Efficacy %) was 0%. For the same compound, the inhibition of growth at 1 ppm (Botrytis cinerea; alone, 1.0 ppm, read-out: Efficacy %) was 37%, the inhibition of growth at 0.008 ppm (Parastagonospora nodorum; 0.008 ppm) was 17% and the inhibition of growth at 0.04 ppm (Parastagonospora nodorum; 0.04 ppm) was 54%. It also gave an inhibition of growth at 0.2 ppm (Parastagonospora nodorum; 0.2 ppm) of 83%, an inhibition of growth at 1 ppm (Parastagonospora nodorum; 1 ppm) of 87% and an inhibition of growth at 0.008 ppm (Diaporthe citri [1]; applied alone) of 65%. For the same compound, the inhibition of growth at 0.04 ppm (Diaporthe citri [1]; applied alone) was 95%, the inhibition of growth at 0.008 ppm (Diaporthe citri [1]; single active) was 63% and the inhibition of growth at 0.04 ppm (Diaporthe citri [1]; single active) was 95%. For the same compound, the inhibition of growth at 0.2 ppm (Diaporthe citri [1]; single active, 0.2 ppm) was 95%, the inhibition of growth at 1 ppm (Diaporthe citri [1]; single active, 1.0 ppm) was 96% and the Efficacy (Diaporthe citri [3]; Table F15, 0.008 ppm alone) was 68%. The inhibition of growth at 0.008 ppm (Cercospora beticola [4]; single compound, 0.008 ppm) was 96%, the inhibition of growth at 0.008 ppm (Cordana musae [5]; mixing partner alone) was 3% and the inhibition of growth at 1 ppm (Cordana musae [5]; mixing partner alone) was 66%. The inhibition of growth at 0.008 ppm (Cordana musae [5]; single substance) was 13%, the inhibition of growth at 0.04 ppm (Cordana musae [5]; single substance, 0.04 ppm) was 67% and the inhibition of growth at 0.2 ppm (Cordana musae [5]; single substance, 0.2 ppm) was 48%. For the same compound, the inhibition of growth at 1 ppm (Cordana musae [5]; single substance) was 77%, the inhibition of growth at 0.2 ppm (Fusarium culmorum [6]; Fusarium culmorum, 0.2 ppm, alone, read-out: Efficacy) was 22% and the inhibition of growth at 1 ppm (Fusarium culmorum [6]; Fusarium culmorum, 1.0 ppm, alone, read-out: Efficacy) was 5%. It also gave an inhibition of growth at 0.04 ppm (Fusarium culmorum [6]; Fusarium culmorum, Table G1, 0.04 ppm alone, read-out: Efficacy) of 0%, an inhibition of growth at 0.2 ppm (Fusarium culmorum [6]; Fusarium culmorum, Table G1, 0.2 ppm alone, read-out: Efficacy) of 15% and an inhibition of growth at 1 ppm (Fusarium culmorum [6]; Fusarium culmorum, Table G1, 1.0 ppm alone, read-out: Efficacy) of 15%. It also gave an inhibition of growth at 0.008 ppm (Alternaria alternate; 0.008 ppm) of 44%, an inhibition of growth at 0.04 ppm (Alternaria alternate; 0.04 ppm) of 87% and an inhibition of growth at 0.2 ppm (Alternaria alternate; 0.2 ppm) of 95%. For the same compound, the inhibition of growth at 1 ppm (Alternaria alternate; 1.0 ppm) was 96%, the inhibition of growth at 0.008 ppm (Cercospora beticola [7]; 0.008 ppm alone) was 95% and the inhibition of growth at 0.04 ppm (Cercospora beticola [7]; 0.04 ppm alone) was 100%. For the same compound, the inhibition of growth at 0.2 ppm (Cercospora beticola [7]; 0.2 ppm alone) was 100%, the inhibition of growth at 1 ppm (Cercospora beticola [7]; 1.0 ppm alone) was 100% and the inhibition of growth at 0.008 ppm ([8]; Colletotrichum lindemuthianum, mixing partner alone, 0.008 ppm, read-out: Efficacy %) was 30%. For the same compound, the inhibition of growth at 0.04 ppm ([8]; Colletotrichum lindemuthianum, mixing partner alone, 0.04 ppm, read-out: Efficacy %) was 80%, the inhibition of growth at 0.2 ppm ([8]; Colletotrichum lindemuthianum, mixing partner alone, 0.2 ppm, read-out: Efficacy %) was 92% and the inhibition of growth at 1 ppm ([8]; Colletotrichum lindemuthianum, mixing partner alone, 1.0 ppm, read-out: Efficacy %) was 88%. It also gave an inhibition of growth at 0.008 ppm ([8]; Colletotrichum lindemuthianum, single active at 0.008 ppm, read-out: Efficacy %) of 25%, an inhibition of growth at 0.04 ppm ([8]; Colletotrichum lindemuthianum, single active at 0.04 ppm, read-out: Efficacy %) of 66% and an inhibition of growth at 0.2 ppm ([8]; Colletotrichum lindemuthianum, single active at 0.2 ppm, read-out: Efficacy %) of 85%. For the same compound, the inhibition of growth at 1 ppm ([8]; Colletotrichum lindemuthianum, single active at 1.0 ppm, read-out: Efficacy %) was 84%, the inhibition of growth at 0.04 ppm (Alternaria alternata; 0.04 ppm) was 49% and the inhibition of growth at 0.2 ppm (Alternaria alternata; 0.2 ppm) was 85%. For the same compound, the inhibition of growth at 0.04 ppm ([9]; 0.04 ppm) was 38%, the inhibition of growth at 0.2 ppm ([9]; 0.2 ppm) was 54% and the inhibition of growth at 1 ppm ([9]; 1 ppm) was 60%. For the same compound, the inhibition of growth at 0.04 ppm (Colletotrichum coccodes; 0.04 ppm) was 35%, the inhibition of growth at 0.008 ppm (Colletotrichum coccodes; single active compound at 0.008 ppm) was 0% and the inhibition of growth at 1 ppm (Colletotrichum coccodes; single active compound at 1 ppm) was 50%. For the same compound, the inhibition of growth at 0.008 ppm ([10]; 0.008 ppm) was 19%, the inhibition of growth at 0.04 ppm ([10]; 0.04 ppm) was 0% and the inhibition of growth at 1 ppm ([10]; 1.0 ppm) was 64%. It also gave an inhibition of growth at 5 ppm ([10]; 5.0 ppm) of 100%.
